Legend:
Mps-1 kinase [1] = biological target: T1, Mps-1 kinase (Homo sapiens, UniProt P33981); assay: Mps-1 kinase assay with 2 mM ATP (TR-FRET)
T1 sequence (P33981 1-857): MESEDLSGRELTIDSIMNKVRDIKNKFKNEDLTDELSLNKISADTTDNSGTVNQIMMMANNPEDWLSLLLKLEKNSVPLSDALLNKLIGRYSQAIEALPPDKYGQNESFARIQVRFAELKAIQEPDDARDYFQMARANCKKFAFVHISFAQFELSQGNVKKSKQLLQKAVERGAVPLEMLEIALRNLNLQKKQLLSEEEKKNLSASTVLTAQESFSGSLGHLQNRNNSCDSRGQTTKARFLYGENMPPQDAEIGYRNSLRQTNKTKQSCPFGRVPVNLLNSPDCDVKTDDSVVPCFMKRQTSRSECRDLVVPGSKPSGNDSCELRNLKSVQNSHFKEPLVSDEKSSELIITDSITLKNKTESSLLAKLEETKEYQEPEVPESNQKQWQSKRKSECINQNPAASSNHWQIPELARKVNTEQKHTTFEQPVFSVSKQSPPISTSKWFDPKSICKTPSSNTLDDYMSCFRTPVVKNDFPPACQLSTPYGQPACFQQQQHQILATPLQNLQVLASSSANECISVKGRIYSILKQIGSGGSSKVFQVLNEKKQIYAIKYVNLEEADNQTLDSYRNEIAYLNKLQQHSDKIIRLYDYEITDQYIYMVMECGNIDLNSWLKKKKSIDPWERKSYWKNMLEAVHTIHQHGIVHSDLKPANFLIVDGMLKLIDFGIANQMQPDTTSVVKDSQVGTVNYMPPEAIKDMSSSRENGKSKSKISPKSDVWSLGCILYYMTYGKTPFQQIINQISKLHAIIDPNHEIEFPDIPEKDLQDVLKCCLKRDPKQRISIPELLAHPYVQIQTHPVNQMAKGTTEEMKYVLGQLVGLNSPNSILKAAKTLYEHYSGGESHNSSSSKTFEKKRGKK

Mps-1 kinase [2] = biological target: T1, Mps-1 kinase; assay: Mps-1 kinase assay with 10 μM ATP (TR-FRET)

| IC50 (Mps-1 kinase [1]) [nM] | IC50 (Mps-1 kinase [2]) [nM] | Compound |
| --- | --- | --- |
| 9 | ≤ 1 | O=C(Cc1ccc(F)cc1)Nc1ccc(-c2ccc3nc(Nc4ccc(F)cc4OC(F)F)nn3c2)cc1 [Example 12.27, N-[4-(2-{[2-(difluoro-methoxy)-4-fluorophenyl]-amino}[1,2,4]triazolo[1,5-a]pyridin-6-yl)phenyl]-2-(4-fluorophenyl)acetamide] |
| ≤ 1 | ≤ 1 | Cc1cc(C(N)=O)ccc1Nc1nc2ccc(-c3ccc(NC(=O)Cc4ccc(F)cc4)cc3)cn2n1 [Example 12.28, 4-{[6-(4-{[(4-fluorophenyl)-acetyl]amino}phenyl)[1,2,4]triazolo[1,5-a]pyridin-2-yl]amino}-3-methyl-benzamide] |
| 2.3 | ≤ 1 | Cc1cc(C(=O)NCC(F)(F)F)ccc1Nc1nc2ccc(-c3ccc(NC(=O)Cc4ccc(F)cc4)cc3)cn2n1 [Example 12.29, 4-{[6-(4-{[(4-fluorophenyl)-acetyl]amino}phenyl)[1,2,4]triazolo[1,5-a]pyridin-2-yl]amino}-3-methyl-N-(2,2,2-trifluoroethyl)-benzamide] |
| 4.3 | ≤ 1 | Cc1cc(C(=O)NCCF)ccc1Nc1nc2ccc(-c3ccc(NC(=O)Cc4ccc(F)cc4)cc3)cn2n1 [Example 12.30, N-(2-fluoroethyl)-4-{[6-(4-{[(4-fluorophenyl)acetyl]-amino}phenyl)[1,2,4]-triazolo[1,5-a]pyridin-2-yl]amino}-3-methyl-benzamide] |
| 3.8 | ≤ 1 | Cc1cc(C(=O)N(C)C)ccc1Nc1nc2ccc(-c3ccc(NC(=O)Cc4ccc(F)cc4)cc3)cn2n1 [Example 12.31, 4-{[6-(4-{[(4-fluorophenyl)-acetyl]amino}phenyl)[1,2,4]triazolo[1,5-a]pyridin-2-yl]amino}-N,N,3-trimethyl-benzamide] |
| 2.2 | ≤ 1 | Cc1cc(S(C)(=O)=O)ccc1Nc1nc2ccc(-c3ccc(NC(=O)Cc4ccc(F)cc4)cc3)cn2n1 [Example 12.32, 2-(4-fluorophenyl)-N-[4-(2-{[2-methyl-4-(methyl-sulfonyl)phenyl]amino}-[1,2,4]triazolo[1,5-a]pyridin-6-yl)phenyl]acetamide] |
| 6.6 | ≤ 1 | Cc1cc(NS(C)(=O)=O)ccc1Nc1nc2ccc(-c3ccc(NC(=O)Cc4ccc(F)cc4)cc3)cn2n1 [Example 12.34, 2-(4-fluorophenyl)-N-{4-[2-({2-methyl-4-[(methyl-sulfonyl)amino]phenyl}-amino)[1,2,4]triazolo[1,5-a]pyridin-6-yl]phenyl}-acetamide] |
| 2.1 | ≤ 1 | COc1ccc(Nc2nc3ccc(-c4ccc(NC(=O)Cc5ccc(F)cc5)cc4)cn3n2)c(C)c1 [Example 12.35, 2-(4-fluorophenyl)-N-(4-{2-[(4-methoxy-2-methyl-phenyl)amino][1,2,4]-triazolo[1,5-a]pyridin-6-yl}-phenyl)acetamide] |
| 3.5 | ≤ 1 | Cc1cc(N(C)C)ccc1Nc1nc2ccc(-c3ccc(NC(=O)Cc4ccc(F)cc4)cc3)cn2n1 [Example 12.36, N-[4-(2-{[4-(dimethylamino)-2-methylphenyl]-amino}[1,2,4]triazolo[1,5-a]pyridin-6-yl)phenyl]-2-(4-fluorophenyl)acetamide] |
| 13 | ≤ 1 | CCNC(=O)c1cc(C)c(Nc2nc3ccc(-c4ccc(NC(=O)Cc5ccc(F)cc5)cc4)cn3n2)cn1 [Example 12.37, N-ethyl-5-{[6-(4-{[(4-fluoro-phenyl)acetyl]amino}-phenyl)[1,2,4]triazolo[1,5-a]pyridin-2-yl]amino}-4-methylpyridine-2-carboxamide] |
| 16 | ≤ 1 | CS(=O)(=O)c1ccc(Nc2nc3ccc(-c4ccc(NC(=O)Cc5ccc(F)cc5)cc4)cn3n2)c(F)c1 [Example 12.39, N-[4-(2-{[2-fluoro-4-(methylsulfonyl)phenyl]-amino}[1,2,4]triazolo[1,5-a]pyridin-6-yl)phenyl]-2-(4-fluorophenyl)acetamide] |
| 9.9 | ≤ 1 | COc1cc(S(C)(=O)=O)ccc1Nc1nc2ccc(-c3ccc(NC(=O)Cc4ccc(F)c(C)c4)cc3)cn2n1 [Example 12.40, 2-(4-fluoro-3-methylphenyl)-N-[4-(2-{[2-methoxy-4-(methylsulfonyl)phenyl]-amino}[1,2,4]triazolo[1,5-a]pyridin-6-yl)phenyl]-acetamide] |
| 7.2 | ≤ 1 | COc1cc(S(C)(=O)=O)ccc1Nc1nc2ccc(-c3ccc(NC(=O)Cc4ccc(Cl)cc4)cc3)cn2n1 [Example 12.41, 2-(4-chlorophenyl)-N-[4-(2-{[2-methoxy-4-(methyl-sulfonyl)phenyl]amino}-[1,2,4]triazolo[1,5-a]pyridin-6-yl)phenyl]acetamide] |
| 12 | ≤ 1 | COc1cc(S(C)(=O)=O)ccc1Nc1nc2ccc(-c3ccc(NC(=O)Cc4ccccc4)cc3)cn2n1 [Example 12.42, N-[4-(2-{[2-methoxy-4-(methylsulfonyl)phenyl]-amino}[1,2,4]triazolo[1,5-a]pyridin-6-yl)phenyl]-2-phenylacetamide] |
| ≤ 1 | ≤ 1 | COc1cc(C(N)=O)ccc1Nc1nc2ccc(-c3ccc(C(=O)NCc4ccc(F)cc4)cc3)cn2n1 [Example 12.43, 4-[(6-{4-[(4-fluorobenzyl)-carbamoyl]phenyl}[1,2,4]triazolo [1,5-a]pyridin-2-yl)-amino]-3-methoxy-benzamide] |
| 1.6 | ≤ 1 | COCCNC(=O)c1ccc(Nc2nc3ccc(-c4ccc(C(=O)NCc5ccc(F)cc5)cc4)cn3n2)c(OC)c1 [Example 12.44, 4-[(6-{4-[(4-fluorobenzyl)-carbamoyl]phenyl}[1,2,4]triazolo [1,5-a]pyridin-2-yl)-amino]-3-methoxy-N-(2-methoxyethyl)benzamide] |
| 1.4 | ≤ 1 | COc1cc(C(=O)NCCF)ccc1Nc1nc2ccc(-c3ccc(C(=O)NCc4ccc(F)cc4)cc3)cn2n1 [Example 12.45, 4-[(6-{4-[(4-fluorobenzyl)-carbamoyl]phenyl}[1,2,4]triazolo [1,5-a]pyridin-2-yl)-amino]-N-(2-fluoroethyl)-3-methoxybenzamide] |
| 3.5 | ≤ 1 | COc1cc(C(=O)N(C)C)ccc1Nc1nc2ccc(-c3ccc(C(=O)NCc4ccc(F)cc4)cc3)cn2n1 [Example 12.46, 4-[(6-{4-[(4-fluorobenzyl)-carbamoyl]phenyl}[1,2,4]triazolo [1,5-a]pyridin-2-yl)-amino]-3-methoxy-N,N-dimethylbenzamide] |
| 2.4 | ≤ 1 | COc1cc(C(=O)NCC(F)F)ccc1Nc1nc2ccc(-c3ccc(C(=O)NCc4ccc(F)cc4)cc3)cn2n1 [Example 12.47, N-(2,2-difluoroethyl)-4-[(6-{4-[(4-fluorobenzyl)-carbamoyl]phenyl}[1,2,4]triazolo [1,5-a]pyridin-2-yl)amino]-3-methoxy-benzamide] |
| 1.3 | ≤ 1 | COc1cc(C(=O)NCCN(C)C)ccc1Nc1nc2ccc(-c3ccc(C(=O)NCc4ccc(F)cc4)cc3)cn2n1 [Example 12.48, N-[2-(dimethylamino)ethyl]-4-[(6-{4-[(4-fluorobenzyl)-carbamoyl]phenyl}[1,2,4]triazolo [1,5-a]pyridin-2-yl)amino]-3-methoxy-benzamide] |
| 3.4 | ≤ 1 | COc1cc(C(=O)N(C)CCN(C)C)ccc1Nc1nc2ccc(-c3ccc(C(=O)NCc4ccc(F)cc4)cc3)cn2n1 [Example 12.49, N-[2-(dimethylamino)ethyl]-4-[(6-{4-[(4-fluorobenzyl)-carbamoyl]phenyl}[1,2,4]triazolo [1,5-a]pyridin-2-yl)-amino]-3-methoxy-N-methylbenzamide] |
| 3.1 | ≤ 1 | COc1cc(C(=O)NCCCF)ccc1Nc1nc2ccc(-c3ccc(C(=O)NCc4ccc(F)cc4)cc3)cn2n1 [Example 12.50, 4-[(6-{4-[(4-fluorobenzyl)-carbamoyl]phenyl}[1,2,4]triazolo [1,5-a]pyridin-2-yl)-amino]-N-(3-fluoropropyl)-3-methoxybenzamide] |
| 14 | ≤ 1 | COc1cc(S(=O)(=O)NC(C)(C)C)ccc1Nc1nc2ccc(-c3ccc(C(=O)NCc4ccc(F)cc4)cc3)cn2n1 [Example 12.52, 4-(2-{[4-(tert-butyl-sulfamoyl)-2-methoxy-phenyl]amino}[1,2,4]-triazolo[1,5-a]pyridin-6-yl)-N-(4-fluorobenzyl)-benzamide] |
| 6.9 | ≤ 1 | CCN(Cc1ccc(Nc2nc3ccc(-c4ccc(C(=O)NCc5ccc(F)cc5)cc4)cn3n2)c(OC)c1)C(C)(C)CO [Example 12.53, 4-{2-[(4-{[ethyl(1-hydroxy-2-methylpropan-2-yl)amino]-methyl}-2-methoxyphenyl)-amino][1,2,4]triazolo[1,5-a]pyridin-6-yl}-N-(4-fluoro-benzyl)benzamide] |
